In brackets after ≈: the same amount, converted by molar mass. Several values for one entry are separate records, joined by “and”; a condition that tells them apart may be missing. Identical values can stand only once. Entries after “also recorded” stand apart in the source; their conditions may differ.
What was measured:
[1] = system: surface-bound aminopeptidases of KB3.1 cells; assay: Inhibition of ʟ-Leu-AMC hydrolysis (leucine aminopeptidases); format: cell-based; conditions: for IC50, inhibition of ʟ-Leu-AMC hydrolysis: KB3.1 cells
Procedure: Hydrolysis of ʟ-Leu-AMC by the surface-bound aminopeptidases of KB3.1 cells was assayed based on the method from Weber and co-workers with slight modifications. KB3.1 cells were grown as monolayer cultures in Dulbecco's modified Eagle's medium (DMEM) containing 10% fetal calf serum at 37 °C in 24-well multidishes. After three days, the confluent monolayers were washed twice with phosphate buffered saline (PBS), and the reaction mixture (450 µL Hanks' buffer at pH 7.2 containing 50 or 100 µM substrate ʟ-Leu-AMC, compounds dissolved in 50 µL DMSO) was added. After being incubated at 23 °C for 30 min, 1 mL cold 0.2 M glycine buffer at pH 10.5 was added. The amount of hydrolyzed 7-amino-4-methylcoumarin (AMC) was measured in a Tecan Infinite M200 PRO fluorescence spectrophotometer (excitation and emission at λ = 365 and 440 nm, respectively). Bestatin [12] and DMSO were used as positive and negative control, respectively.

[2] = system: S. aureus DSM1104; assay: Inhibition of biofilm formation; format: cell-based, Staphylococcus aureus; set-up: biofilm inhibition results from plate reader: reference not given here; conditions: for biofilm inhibition results from plate reader: raw reading, replications 1-3; for inhibition of biofilm formation (in words): S. aureus
Procedure: The assay was performed in Falcon® 96-well flat bottom plates as previously described. […] Methanol was used as negative control, while tetracycline was used as positive control. All experiments were made in triplicates.

[3] = system: surface-bound aminopeptidases of KB3.1 cells; assay: Inhibition of ʟ-Leu-AMC hydrolysis (leucine aminopeptidases); format: cell-based; conditions: at 50 and 110 µM substrate concentration
[4] = system: several Gram-positive bacteria (Bacillus subtilis, S. aureus, MRSA, Micrococcus luteus); set-up: method as in PMID 31310114; conditions: B. subtilis, M. luteus; cited from earlier work
[5] = system: leucine aminopeptidase in HeLa S3 cells; set-up: method as in PMID 1620745; conditions: 50 μM substrate concentration; cited from earlier work

| SMILES | IC50, inhibition of ʟ-Leu-AMC hydrolysis ([1]; ʟ-Leu-AMC (50 µM)) [mg/L] | IC50, inhibition of ʟ-Leu-AMC hydrolysis ([1]; ʟ-Leu-AMC (100 µM)) [mg/L] | biofilm inhibition results from plate reader ([2]; 8 µg/ml) | biofilm inhibition results from plate reader ([2]; 16 µg/ml) | biofilm inhibition results from plate reader ([2]; 32 µg/ml) | biofilm inhibition results from plate reader ([2]; 64 µg/ml) | biofilm inhibition results from plate reader ([2]; 128 µg/ml) | biofilm inhibition results from plate reader ([2]; 256 µg/ml) | ʟ-Leu-AMC inhibition assay (in words) [1] | IC50, inhibition of ʟ-Leu-AMC hydrolysis [3] [mg/L] | inhibition of biofilm formation (in words) [2] | activity against Gram-positive bacteria (in words) [4] | IC50, similar assay against HeLa S3 cells [5] [mg/L] |
| --- | --- | --- | --- | --- | --- | --- | --- | --- | --- | --- | --- | --- | --- |
| CC(C)C[C@H](NC(=O)[C@@H](O)[C@H](N)Cc1ccccc1)C(=O)O [Bestatin, reference compound] | 10.8 | 40.9 | – | – | – | – | – | – | – | – | – | – | – |
| CC1=C(CCCCCCCCCCCCCCCCCCC2=C(C)C(=O)OC2=O)C(=O)OC1=O [Compound 1, 1,18-bis[4′-methyl-2′,5′-dioxo-3′-furyl]octadecane] | – | – | 3.282 and 3.031 and 2.758 | 3.706 and 3.472 and 3.059 | 3.45 and 3.219 and 3.38 | 3.207 and 4.69 and 3.419 | 3.365 and 3.804 and 3.615 | 4.909 and 5.651 and 4.54 | – | – | – | – | – |
| CC1=C(CCCCCCCCCCCCCCCCCCCCC2=C(C)C(=O)OC2=O)C(=O)OC1=O [Compound 2, skeletocutin N] | – | – | 3.048 and 2.841 and 2.718 | 2.916 and 2.987 and 2.995 | 3.176 and 3.059 and 3.016 | 2.823 and 3.791 and 2.979 | 3.623 and 4.381 and 3.14 | 4.44 and 4.077 and 4.364 | – | – | – | – | – |
| CC1=C(CCCCCCCCCCCCCCCCCC/C=C(\CC(=O)O)C(=O)O)C(=O)OC1=O [Compound 3, (E)-2-(19-(4’-methyl-2’,5’-dioxo-2’,5’-dihydrofuran-3’-yl)nonadecylidene)butanedioic acid] | 89.6 | 130.4 | 2.88 and 3.631 and 3.132 | 2.837 and 3.385 and 3.2 | 2.875 and 3.534 and 3.458 | 3.373 and 3.63 and 3.041 | 3.752 and 3.854 and 3.496 | 1.742 and 2.419 and 2.26 | performed moderately | > 80 | moderately inhibited; also recorded: weakly inhibit | – | – |
| CC1=C(CCCCCCCCCCCCCCCCC/C=C(\C(=O)O)C(CC(=O)O)C(=O)O)C(=O)OC1=O (stereo not drawn) [Compound 4, (Z)-21-(4’-methyl-2’,5’-dioxo-2’,5’-dihydrofuran-3’-yl)henicos-3-ene-1,2,3-tricarboxylic acid] | 71.1 | 102.3 | 4.243 and 3.452 and 3.554 | 4.47 and 3.878 and 4.114 | 4.702 and 3.439 and 4.271 | 3.957 and 3.887 and 3.524 | 4.03 and 4.115 and 4.224 | 6 and 5.066 and 4.841 | performed moderately | – | – | – | – |
| CC1=C(CCCCCCCCCCCCCCCCCCC(C(=O)O)C(CC(=O)O)C(=O)O)C(=O)OC1=O (stereo not drawn) [Compound 5, 21-(4’-methyl-2’,5’-dioxo-2’,5’-dihydrofuran-3’-yl)henicosane-1,2,3-tricarboxylic acid] | 153.2 | 225.3 | 3.444 and 2.956 and 3.704 | 3.633 and 3.438 and 3.879 | 4.452 and 3.838 and 3.757 | 3.708 and 3.627 and 3.623 | 3.871 and 3.836 and 3.597 | 3.822 and 3.87 and 3.988 | – | > 80 | weakly inhibit | – | – |
| CC1=C(CCCCCCCCCCCCCCCCC2=C(C)C(=O)OC2=O)C(=O)OC1=O [Compound 6, tyromycin A] | 138.4 | – | 3.766 and 3.772 and 3.586 | 3.612 and 3.954 and 4.007 | 3.328 and 3.954 and 3.188 | 3.105 and 3.723 and 3.478 | 3.861 and 2.858 and 2.819 | 4.54 and 3.949 and 6 | – | – | – | active | 31 (≈ 69.4 µM) |
| CN(C)[C@@H]1C(O)=C(C(N)=O)C(=O)[C@@]2(O)C(O)=C3C(=O)c4c(O)cccc4[C@@](C)(O)[C@H]3C[C@@H]12 [Tetracycline, reference compound] | – | – | – | – | 1.107 and 1.315 and 1.404 and 1.155 and 0.918 and 0.791 | 0.885 and 0.917 and 0.836 and 0.83 and 0.627 and 0.95 | 0.622 and 0.527 and 0.478 and 0.693 and 0.655 and 0.765 | 0.462 and 0.414 and 0.487 and 0.644 and 0.444 and 0.498 | – | – | – | – | – |
